{"source": "PubChem BioAssay AID1919010", "about": "(Molecular Pharmacology Branch, DTP, NCI, 2023)", "tested_on": "Hs578T complex spheroid growth, percent test/control", "experiment": "Anticancer human tumor Hs578T cell line growth inhibition [AhR];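 for all read-outs here: luminescent viability signal as a proxy for spheroid growth; spheroids exposed to agents for one week after three days of growth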", "settings": "for IC50: curve of first compound; for viability, T/C: stronger effect = lower value", "excerpt": "Multicellular complex tumor spheroid response to aryl hydrocarbon receptor antagonists in combination with a variety of drugs and investigational agents in selected tumor cell lines\nThe current study was undertaken to assess response to aryl hydrocarbon receptor antagonists in combination with standard-of-care drugs and investigational agents in solid tumor complex spheroid models. Complex spheroids include a stromal component modeled by human endothelial cells (HUVEC) and fibroblasts modeled by human mesenchymal stem cells (MSCs). The concentration ranges selected for each drug and investigational agent were based upon clinically achievable concentrations if the clinical Cmax of the agent was known.\nCompounds. The drugs and investigational agents: BAY 2416964 (NSC825713), GNF351 (NSC835774), CH-223191 (NSC835775), CPI-455 (NSC825282), aza-TdCyd (NSC777586), decitabine (NSC127716), belinostat (NSC758774), entinostat (NSC756642), pevonedistat (NSC761192), tazemetostat (NSC777109), talazoparib (NSC765396), olaparib (NSC753686), selinexor (NSC780203), nedisertib (M3814, NSC802822), bortezomib (NSC756655), venetoclax (NSC766270), doxorubicin (NSC123127), elimusertib (BAY189344, NSC800525), ceralasertib (AZD6738, NSC777638), TAK-243 (NSC785004), alisertib (NSC759677), etoposide (NSC141540), topotecan (NSC609699), eribulin (NSC707389), gemcitabine (NSC613327), carboplatin (NSC241240), cisplatin (NSC119875), and SN-38 (NSC673596) were obtained from the National Cancer Institute (NCI) Developmental Therapeutics Program Chemical Repository (32). The FDA-approved anticancer drug set is available from the Developmental Therapeutics Program at https://dtp.cancer.gov/organization/dscb/obtaining/available plates.htm. […] The stock solutions were prepared in dimethyl sulfoxide (DMSO, Sigma-Aldrich, St. Louis, MO, cat. D2650), except for the platinum compounds which were prepared in saline (Quality Biological, Gaithersburg, MD, cat. 114-055-101), at 800-fold the tested concentration and stored at -70 degrees C prior to their use. All drugs and investigational agents were tested over a range starting from a high concentration at or near the clinical Cmax and decreasing in half-log increments. If the clinical Cmax for an agent had not been determined, the highest concentration tested was 10 microM (Table 1).\nCell Culture. All cells were maintained in an incubator at 37 degrees C and 5% CO2 with 95% humidity. The PDC lines were cultured according to standard operating procedures established by the NCI PDMR (https://pdmr.cancer.gov). Briefly, all PDCs were thawed and cultured in Matrigel-coated flasks prepared with a working solution of 1X Ham's F-12 nutrient mix, without supplementation (Invitrogen, Waltham, MA, cat. 11765054), 100 U/mL penicillin-streptomycin (Invitrogen, cat. 15140122), and 2.5% Matrigel (Corning Inc., Corning, NY, cat. 354248) for the first three passages. All PDCs were cultured in complete DMEM/F-12 media containing advanced DMEM/F-12 (Invitrogen, cat. 12634028), 4.9% defined fetal bovine serum, heat inactivated (HyClone Laboratories Inc., Logan, UT, cat. SH30070.03HI), 389 ng/mL hydrocortisone (Sigma-Aldrich, cat. H4001), 9.7 ng/mL human EGF recombinant protein (Invitrogen, cat. PHG0313), 23.4 microg/mL adenine (Sigma-Aldrich, cat. A2786), 97.3 U/mL penicillin-streptomycin (Invitrogen, cat. 15140122), 1.9 mM L-glutamine (Invitrogen, cat. 25030081), and 9.7 microM Y-27632 dihydrochloride (Tocris Bioscience, Bristol, United Kingdom, cat. 1254). The PDCs were cultured in complete DMEM/F12 media without 10 microM Y-27632 dihydrochloride for at least two passages prior to the screen. The established cell lines NCI-H1341 and […] were cultured in DMEM/F-12, HEPES (Invitrogen, cat. 11330032), 5% defined fetal bovine serum (HyClone Laboratories Inc., cat. SH30070.03), ITS premix universal culture supplement [insulin (5 microg/mL), transferrin (5 microg/mL), and selenious acid (5 ng/mL)] […]", "data": [{"smiles": "COc1cc(C2c3cc4c(cc3C(OC3OC5COC(C)OC5C(O)C3O)C3COC(=O)C23)OCO4)cc(OC)c1O", "note": "(stereo not given) + Cc1ccccc1N=Nc1ccc(NC(=O)c2ccnn2C)c(C)c1", "values": [{"measurement": "IC50", "setting": "second compound 0.1 µM", "result": "> 10", "unit": "µM"}, {"measurement": "IC50", "setting": "second compound 0.316 µM", "result": "> 10", "unit": "µM"}, {"measurement": "IC50", "setting": "second compound 1 µM", "result": "> 10", "unit": "µM"}, {"measurement": "IC50", "setting": "second compound 3.16 µM", "result": 8.99, "unit": "µM"}, {"measurement": "IC50", "setting": "second compound 10 µM", "result": 5.16, "unit": "µM"}, {"measurement": "viability, T/C", "setting": "second compound 0.1 µM, first compound 0.0316 µM", "result": 97.1, "unit": "%"}, {"measurement": "viability, T/C", "setting": "second compound 0.1 µM, first compound 0.1 µM", "result": 96.1, "unit": "%"}, {"measurement": "viability, T/C", "setting": "second compound 0.1 µM, first compound 0.316 µM", "result": 77.3, "unit": "%"}, {"measurement": "viability, T/C", "setting": "second compound 0.1 µM, first compound 1 µM", "result": 72.8, "unit": "%"}, {"measurement": "viability, T/C", "setting": "second compound 0.1 µM, first compound 3.16 µM", "result": 79.5, "unit": "%"}, {"measurement": "viability, T/C", "setting": "second compound 0.1 µM, first compound 10 µM", "result": 57.9, "unit": "%"}, {"measurement": "viability, T/C", "setting": "second compound 0.316 µM, first compound 0.0316 µM", "result": 101, "unit": "%"}, {"measurement": "viability, T/C", "setting": "second compound 0.316 µM, first compound 0.1 µM", "result": 103, "unit": "%"}, {"measurement": "viability, T/C", "setting": "second compound 0.316 µM, first compound 0.316 µM", "result": 88.9, "unit": "%"}, {"measurement": "viability, T/C", "setting": "second compound 0.316 µM, first compound 1 µM", "result": 83.1, "unit": "%"}, {"measurement": "viability, T/C", "setting": "second compound 0.316 µM, first compound 3.16 µM", "result": 72.2, "unit": "%"}, {"measurement": "viability, T/C", "setting": "second compound 0.316 µM, first compound 10 µM", "result": 68.9, "unit": "%"}, {"measurement": "viability, T/C", "setting": "second compound 1 µM, first compound 0.0316 µM", "result": 92.6, "unit": "%"}, {"measurement": "viability, T/C", "setting": "second compound 1 µM, first compound 0.1 µM", "result": 86.4, "unit": "%"}, {"measurement": "viability, T/C", "setting": "second compound 1 µM, first compound 0.316 µM", "result": 77.3, "unit": "%"}, {"measurement": "viability, T/C", "setting": "second compound 1 µM, first compound 1 µM", "result": 73.9, "unit": "%"}, {"measurement": "viability, T/C", "setting": "second compound 1 µM, first compound 3.16 µM", "result": 66.3, "unit": "%"}, {"measurement": "viability, T/C", "setting": "second compound 1 µM, first compound 10 µM", "result": 63.1, "unit": "%"}, {"measurement": "viability, T/C", "setting": "second compound 3.16 µM, first compound 0.0316 µM", "result": 81.2, "unit": "%"}, {"measurement": "viability, T/C", "setting": "second compound 3.16 µM, first compound 0.1 µM", "result": 78.8, "unit": "%"}, {"measurement": "viability, T/C", "setting": "second compound 3.16 µM, first compound 0.316 µM", "result": 76.9, "unit": "%"}, {"measurement": "viability, T/C", "setting": "second compound 3.16 µM, first compound 1 µM", "result": 73.7, "unit": "%"}, {"measurement": "viability, T/C", "setting": "second compound 3.16 µM, first compound 3.16 µM", "result": 68.5, "unit": "%"}, {"measurement": "viability, T/C", "setting": "second compound 3.16 µM, first compound 10 µM", "result": 48, "unit": "%"}, {"measurement": "viability, T/C", "setting": "second compound 10 µM, first compound 0.0316 µM", "result": 68.6, "unit": "%"}, {"measurement": "viability, T/C", "setting": "second compound 10 µM, first compound 0.1 µM", "result": 68.1, "unit": "%"}, {"measurement": "viability, T/C", "setting": "second compound 10 µM, first compound 0.316 µM", "result": 67.6, "unit": "%"}, {"measurement": "viability, T/C", "setting": "second compound 10 µM, first compound 1 µM", "result": 57.6, "unit": "%"}, {"measurement": "viability, T/C", "setting": "second compound 10 µM, first compound 3.16 µM", "result": 54.4, "unit": "%"}, {"measurement": "viability, T/C", "setting": "second compound 10 µM, first compound 10 µM", "result": 44.9, "unit": "%"}]}, {"smiles": "CCN(c1cc(-c2ccc(CN3CCOCC3)cc2)cc(C(=O)NCc2c(C)cc(C)[nH]c2=O)c1C)C1CCOCC1", "note": "+ Cc1ccccc1N=Nc1ccc(NC(=O)c2ccnn2C)c(C)c1", "values": [{"measurement": "IC50", "setting": "second compound 0.1 µM", "result": "> 3", "unit": "µM"}, {"measurement": "IC50", "setting": "second compound 0.316 µM", "result": "> 3", "unit": "µM"}, {"measurement": "IC50", "setting": "second compound 1 µM", "result": "> 3", "unit": "µM"}, {"measurement": "IC50", "setting": "second compound 3.16 µM", "result": "> 3", "unit": "µM"}, {"measurement": "IC50", "setting": "second compound 10 µM", "result": "> 3", "unit": "µM"}, {"measurement": "viability, T/C", "setting": "second compound 0.1 µM, first compound 0.00949 µM", "result": 97.5, "unit": "%"}, {"measurement": "viability, T/C", "setting": "second compound 0.1 µM, first compound 0.03 µM", "result": 103, "unit": "%"}, {"measurement": "viability, T/C", "setting": "second compound 0.1 µM, first compound 0.0949 µM", "result": 94.1, "unit": "%"}, {"measurement": "viability, T/C", "setting": "second compound 0.1 µM, first compound 0.3 µM", "result": 99.4, "unit": "%"}, {"measurement": "viability, T/C", "setting": "second compound 0.1 µM, first compound 0.949 µM", "result": 94.4, "unit": "%"}, {"measurement": "viability, T/C", "setting": "second compound 0.1 µM, first compound 3 µM", "result": 93, "unit": "%"}, {"measurement": "viability, T/C", "setting": "second compound 0.316 µM, first compound 0.00949 µM", "result": 106, "unit": "%"}, {"measurement": "viability, T/C", "setting": "second compound 0.316 µM, first compound 0.03 µM", "result": 107, "unit": "%"}, {"measurement": "viability, T/C", "setting": "second compound 0.316 µM, first compound 0.0949 µM", "result": 104, "unit": "%"}, {"measurement": "viability, T/C", "setting": "second compound 0.316 µM, first compound 0.3 µM", "result": 111, "unit": "%"}, {"measurement": "viability, T/C", "setting": "second compound 0.316 µM, first compound 0.949 µM", "result": 108, "unit": "%"}, {"measurement": "viability, T/C", "setting": "second compound 0.316 µM, first compound 3 µM", "result": 93.8, "unit": "%"}, {"measurement": "viability, T/C", "setting": "second compound 1 µM, first compound 0.00949 µM", "result": 99.9, "unit": "%"}, {"measurement": "viability, T/C", "setting": "second compound 1 µM, first compound 0.03 µM", "result": 106, "unit": "%"}, {"measurement": "viability, T/C", "setting": "second compound 1 µM, first compound 0.0949 µM", "result": 104, "unit": "%"}, {"measurement": "viability, T/C", "setting": "second compound 1 µM, first compound 0.3 µM", "result": 99.7, "unit": "%"}, {"measurement": "viability, T/C", "setting": "second compound 1 µM, first compound 0.949 µM", "result": 102, "unit": "%"}, {"measurement": "viability, T/C", "setting": "second compound 1 µM, first compound 3 µM", "result": 94.9, "unit": "%"}, {"measurement": "viability, T/C", "setting": "second compound 3.16 µM, first compound 0.00949 µM", "result": 95.3, "unit": "%"}, {"measurement": "viability, T/C", "setting": "second compound 3.16 µM, first compound 0.03 µM", "result": 88, "unit": "%"}, {"measurement": "viability, T/C", "setting": "second compound 3.16 µM, first compound 0.0949 µM", "result": 98.6, "unit": "%"}, {"measurement": "viability, T/C", "setting": "second compound 3.16 µM, first compound 0.3 µM", "result": 83.2, "unit": "%"}, {"measurement": "viability, T/C", "setting": "second compound 3.16 µM, first compound 0.949 µM", "result": 89.8, "unit": "%"}, {"measurement": "viability, T/C", "setting": "second compound 3.16 µM, first compound 3 µM", "result": 82.7, "unit": "%"}, {"measurement": "viability, T/C", "setting": "second compound 10 µM, first compound 0.00949 µM", "result": 63.9, "unit": "%"}, {"measurement": "viability, T/C", "setting": "second compound 10 µM, first compound 0.03 µM", "result": 67.5, "unit": "%"}, {"measurement": "viability, T/C", "setting": "second compound 10 µM, first compound 0.0949 µM", "result": 74, "unit": "%"}, {"measurement": "viability, T/C", "setting": "second compound 10 µM, first compound 0.3 µM", "result": 66.8, "unit": "%"}, {"measurement": "viability, T/C", "setting": "second compound 10 µM, first compound 0.949 µM", "result": 64, "unit": "%"}, {"measurement": "viability, T/C", "setting": "second compound 10 µM, first compound 3 µM", "result": 67, "unit": "%"}]}]}
